Measured values as given in publication PMC2846716 (Journal of medicinal chemistry, 2010).
Where a SMILES comes first, the peptide text is derived from it. [ ]: non-standard residue; d: D form. The star is where a group is joined. NMeW = CN[C@@H](Cc1c[nH]c2ccccc12)C(=O)O; Palmitoyl = CCCCCCCCCCCCCCCC(=O)*

Experiments:
[1] = in vitro stability in rat serum; ref [5], [7]; cited from earlier work
CF-1 mice [2] = assay: 6 Hz corneal stimulation seizure test; type: in vivo, mouse; conditions: 4 mg/kg i.p.; for Primary Screening at 4 mg/kg (6 Hz, 32 mA), mice protected / tested, 15 min: challenged 15 min after administration; for Primary Screening at 4 mg/kg (6 Hz, 32 mA), mice protected / tested, 30 min: challenged 30 min after administration; for Primary Screening at 4 mg/kg (6 Hz, 32 mA), mice protected / tested, 60 min: challenged 60 min after administration; for Primary Screening at 4 mg/kg (6 Hz, 32 mA), mice protected / tested, 120 min: challenged 120 min after administration; for Primary Screening at 4 mg/kg (6 Hz, 32 mA), mice protected / tested, 240 min: challenged 240 min after administration
[3] = Stability in 25% rat serum; type: in vitro ADME; conditions: 25% rat serum at 37° C, 0.1M Tris-HCl pH 7.5, 20 μM peptide, up to 8 hours, HPLC
CF-1 mice [4] = conditions: after i.p. administration; ref [5]; cited from earlier work
[5] = LogD by HPLC capacity factor; type: physicochemical; conditions: RP-HPLC, Vydac diphenyl column (capacity factor k')
hGalR2 = biological target: T1, hGalR2 (Homo sapiens, UniProt O43603); type: binding; conditions: relative to [N-Me, des-Sar]Gal-B2
T1 sequence (O43603 1-387): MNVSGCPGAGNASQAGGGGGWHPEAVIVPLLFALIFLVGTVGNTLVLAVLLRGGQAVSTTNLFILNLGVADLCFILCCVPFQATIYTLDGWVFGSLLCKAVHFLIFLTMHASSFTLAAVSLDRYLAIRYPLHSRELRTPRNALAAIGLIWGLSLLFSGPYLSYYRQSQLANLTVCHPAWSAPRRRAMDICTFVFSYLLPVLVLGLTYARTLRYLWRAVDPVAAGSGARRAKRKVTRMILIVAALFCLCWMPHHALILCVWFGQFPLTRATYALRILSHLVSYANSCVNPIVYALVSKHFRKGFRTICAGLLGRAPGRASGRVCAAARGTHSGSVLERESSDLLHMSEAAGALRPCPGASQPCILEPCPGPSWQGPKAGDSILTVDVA

GalR3 = conditions: binding; ref [18]; cited from earlier work

Row | Compound | serum half-life in rat serum [1] [h] | Primary Screening at 4 mg/kg (6 Hz, 32 mA), mice protected / tested, 15 min (CF-1 mice [2]) | Primary Screening at 4 mg/kg (6 Hz, 32 mA), mice protected / tested, 30 min (CF-1 mice [2]) | Primary Screening at 4 mg/kg (6 Hz, 32 mA), mice protected / tested, 60 min (CF-1 mice [2]) | Primary Screening at 4 mg/kg (6 Hz, 32 mA), mice protected / tested, 120 min (CF-1 mice [2]) | Primary Screening at 4 mg/kg (6 Hz, 32 mA), mice protected / tested, 240 min (CF-1 mice [2]) | half-life in 25% rat serum [3] [h] | ED50, 6 Hz corneal stimulation mouse model (CF-1 mice [4]) [mg/kg] | chromatographic logD [5] | reduction of binding toward GalR2 on removal of N-terminal methyl group (hGalR2) [fold] | preference towards GalR2 above GalR3 (GalR3) [fold]
1 | CCCCCCCCCCCCCCCC(=O)NCCCC[C@H](NC(=O)[C@H](CCCCN)NC(=O)[C@H](CCCCN)NC(=O)[C@@H]1CCCN1C(=O)CNC(=O)[C@H](CC(C)C)NC(=O)[C@H](CC(C)C)NC(=O)[C@H](Cc1ccc(O)cc1)NC(=O)CNC(=O)[C@H](C)NC(=O)[C@H](CO)NC(=O)[C@H](CC(N)=O)NC(=O)[C@H](CC(C)C)NC(=O)[C@@H](NC(=O)[C@H](Cc1c[nH]c2ccccc12)NC(=O)CNC)[C@@H](C)O)C(=O)N[C@@H](CCCCN)C(N)=O [Gal-B2] | 9.4 | 3/4 | 4/4 | 4/4 | 4/4 | 0/4 | 9.4 | 0.8 | – | – | –
2 | CCCCCCCCCCCCCCCC(=O)NCCCC[C@H](NC(=O)[C@H](CCCCN)NC(=O)[C@H](CCCCN)NC(=O)[C@@H]1CCCN1C(=O)CNC(=O)[C@H](CC(C)C)NC(=O)[C@H](CC(C)C)NC(=O)[C@H](Cc1ccc(O)cc1)NC(=O)CNC(=O)[C@H](C)NC(=O)[C@H](CO)NC(=O)[C@H](CC(N)=O)NC(=O)[C@H](CC(C)C)NC(=O)[C@@H](NC(=O)[C@@H](N)Cc1c[nH]c2ccccc12)[C@@H](C)O)C(=O)N[C@@H](CCCCN)C(N)=O [Gal-B5] (H-WTLNSAGYLLGPKKK(Palmitoyl)K-NH2) | – | 2/4 | 1/4 | 2/4 | 2/4 | 0/3 | – | – | 1.22 ± 0.02 | 2 | –
3 | CCCCCCCCCCCCCCCC(=O)NCCCC[C@H](NC(=O)[C@H](CCCCN)NC(=O)[C@H](CCCCN)NC(=O)[C@@H]1CCCN1C(=O)CNC(=O)[C@H](CC(C)C)NC(=O)[C@H](CC(C)C)NC(=O)[C@H](Cc1ccc(O)cc1)NC(=O)CNC(=O)[C@H](C)NC(=O)[C@H](CO)NC(=O)[C@H](CC(N)=O)NC(=O)[C@H](CC(C)C)NC(=O)[C@@H](NC(=O)[C@H](Cc1c[nH]c2ccccc12)NC(C)=O)[C@@H](C)O)C(=O)N[C@@H](CCCCN)C(N)=O [[N-Ac, des-Sar]Gal-B2] (Ac-WTLNSAGYLLGPKKK(Palmitoyl)K-NH2) | – | – | – | – | – | – | – | – | 1.28 ± 0.02 | – | –
4 | CCCCCCCCCCCCCCCC(=O)NCCCC[C@H](NC(=O)[C@H](CCCCN)NC(=O)[C@H](CCCCN)NC(=O)[C@@H]1CCCN1C(=O)CNC(=O)[C@H](CC(C)C)NC(=O)[C@H](CC(C)C)NC(=O)[C@H](Cc1ccc(O)cc1)NC(=O)CNC(=O)[C@H](C)NC(=O)[C@H](CO)NC(=O)[C@H](CC(N)=O)NC(=O)[C@H](CC(C)C)NC(=O)[C@@H](NC(=O)[C@H](Cc1c[nH]c2ccccc12)NC)[C@@H](C)O)C(=O)N[C@@H](CCCCN)C(N)=O [[N-Me, des-Sar]Gal-B2] (H-[NMeW]TLNSAGYLLGPKKK(Palmitoyl)K-NH2) | – | 0/4 | 3/4 | 3/4 | 1/4 | 0/3 | – | – | 1.29 ± 0.01 | – | –
5 | CCCCCCCCCCCCCCCC(=O)NCCCC[C@H](NC(=O)[C@H](CCCCN)NC(=O)[C@H](CCCCN)NC(=O)[C@@H]1CCCN1C(=O)CNC(=O)[C@H](CC(C)C)NC(=O)[C@H](CC(C)C)NC(=O)[C@H](Cc1ccc(O)cc1)NC(=O)CNC(=O)[C@H](C)NC(=O)[C@H](CO)NC(=O)[C@H](CC(N)=O)NC(=O)[C@H](CC(C)C)NC(=O)[C@@H](NC(=O)[C@H](Cc1c[nH]c2ccccc12)NC(=O)[C@H](C)N)[C@@H](C)O)C(=O)N[C@@H](CCCCN)C(N)=O [[Sar1Ala]Gal-B2] (H-AWTLNSAGYLLGPKKK(Palmitoyl)K-NH2) | – | 4/4 | 4/4 | 4/4 | 1/4 | 0/4 | – | – | 1.28 ± 0.01 | – | –
6 | CCCCCCCCCCCCCCCC(=O)NCCCC[C@H](NC(=O)[C@H](CCCCN)NC(=O)[C@H](CCCCN)NC(=O)[C@@H]1CCCN1C(=O)CNC(=O)[C@H](CC(C)C)NC(=O)[C@H](CC(C)C)NC(=O)[C@H](Cc1ccc(O)cc1)NC(=O)CNC(=O)[C@H](C)NC(=O)[C@H](CO)NC(=O)[C@H](CC(N)=O)NC(=O)[C@H](CC(C)C)NC(=O)[C@@H](NC(=O)[C@H](Cc1c[nH]c2ccccc12)NC(=O)CN)[C@@H](C)O)C(=O)N[C@@H](CCCCN)C(N)=O [[Sar1Gly]Gal-B2] | – | 1/4 | 3/4 | 3/4 | 0/4 | 0/3 | – | – | 1.3 ± 0.04 | – | –
7 | WTLNSAGYLL-CONH2 [Gal(2-11)] | – | – | – | – | – | – | – | – | – | – | 12
